Source: patent publication US9340555B2, “Compounds as tyrosine kinase modulators” (Allergan, Inc., priority 2009, dated 2016)

Tests used:
[1] = molecular target: VEGFR2 (Homo sapiens (Human), UniProt P35968); assay: VEGF Stimulated Ca++ Signal In Vitro (Cellular VEGFR2, FLIPR); assay type: cell-based; conditions: HUVEC, VEGF stimulation (5 ng/mL), intracellular calcium
[2] = molecular target: human VEGF receptor (VEGFR-2) (Homo sapiens (Human), UniProt P35968); assay: VEGFR2 Kinase Assay (Enzymic VEGFR2); assay type: biochemical; conditions: His-VEGFR-2 cytoplasmic domain, 3.6 µM ATP
Method: VEGFR2 Kinase Assay The cytoplasmic domain of the human VEGF receptor (VEGFR-2) was expressed as a Histidine-tagged fusion protein following infection of insect cells using an His engineered baculovirus. […] Kinase assays were performed in 96 well microtiter plates that were coated overnight with 30 µg of poly-Glu-[…]:1) in 10 mM Phosphate Buffered Saline (PBS), pH 7.2-7.4. The plates were incubated with 1% BSA and then washed four times with PBS prior to starting the reaction. […] Reactions were initiated by the addition 0.5 ng of purified protein. Following a ten minute incubation at 25° C., the reactions were washed four times with PBS containing 0.05% Tween-20. 100 µl of a monoclonal anti-phosphotyrosine antibody-peroxidase conjugate was diluted 1:10000 in PBS-Tween-20 and added to the wells for 30 minutes. Following four washes with PBS-Tween-20, 100 µl of 0-phenylenediamine Dihydrochloride in Phosphate-citrate buffer, containing urea hydrogen peroxide, was added to the wells for 7 minutes as a colorimetric substrate for the peroxidase. […] IC50 values for compound inhibition were calculated directly from graphs of optical density (arbitrary units) versus compound concentration following subtraction of blank values.

[3] = molecular target: VEGFR1 (Homo sapiens (Human), UniProt P17948); assay: Enzymic VEGFR1; assay type: biochemical
[4] = system: Rabbit Eye VEGF Permeability; assay: Rabbit Eye VEGF Permeability Model; assay type: in vivo
Description: Rabbit Eye VEGF Permeability Model
Assay used was detailed by Jeffrey Edelman, etc in Exp. Eye. Res. 80 (2005), Pg 249-258.

[5] = molecular target: PDGFRβ (Homo sapiens (Human), UniProt P09619); assay: Enzymic PDGFRβ; assay type: biochemical
PDGFRβ, sequence (P09619 33-1106, species assumed): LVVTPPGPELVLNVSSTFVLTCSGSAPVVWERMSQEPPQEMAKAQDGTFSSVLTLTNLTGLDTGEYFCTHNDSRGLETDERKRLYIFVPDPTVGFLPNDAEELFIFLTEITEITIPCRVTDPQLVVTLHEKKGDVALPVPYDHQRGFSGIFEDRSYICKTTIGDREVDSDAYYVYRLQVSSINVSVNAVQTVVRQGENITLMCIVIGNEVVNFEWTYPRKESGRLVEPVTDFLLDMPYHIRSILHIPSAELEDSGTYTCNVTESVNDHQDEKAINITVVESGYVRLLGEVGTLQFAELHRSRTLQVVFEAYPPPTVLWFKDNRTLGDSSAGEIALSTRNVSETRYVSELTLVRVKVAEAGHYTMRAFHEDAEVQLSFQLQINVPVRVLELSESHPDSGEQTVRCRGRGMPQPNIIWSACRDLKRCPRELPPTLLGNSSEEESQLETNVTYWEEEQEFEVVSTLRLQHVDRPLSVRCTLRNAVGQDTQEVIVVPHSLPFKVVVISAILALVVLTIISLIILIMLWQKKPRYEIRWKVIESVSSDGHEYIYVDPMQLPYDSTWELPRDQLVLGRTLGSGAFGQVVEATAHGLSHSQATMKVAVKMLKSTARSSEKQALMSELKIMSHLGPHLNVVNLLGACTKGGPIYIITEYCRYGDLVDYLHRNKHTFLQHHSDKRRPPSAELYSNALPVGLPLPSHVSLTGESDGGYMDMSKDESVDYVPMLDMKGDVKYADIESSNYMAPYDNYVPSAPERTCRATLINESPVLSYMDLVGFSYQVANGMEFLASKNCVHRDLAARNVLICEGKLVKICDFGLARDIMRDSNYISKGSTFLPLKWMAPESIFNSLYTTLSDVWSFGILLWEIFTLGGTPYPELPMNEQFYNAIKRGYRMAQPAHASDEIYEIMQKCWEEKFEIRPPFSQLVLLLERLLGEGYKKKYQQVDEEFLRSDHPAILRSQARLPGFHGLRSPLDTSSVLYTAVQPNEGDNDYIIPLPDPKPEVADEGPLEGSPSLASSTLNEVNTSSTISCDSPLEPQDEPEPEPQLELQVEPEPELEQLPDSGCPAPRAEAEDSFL

VEGFR2, sequence (P35968 20-1356): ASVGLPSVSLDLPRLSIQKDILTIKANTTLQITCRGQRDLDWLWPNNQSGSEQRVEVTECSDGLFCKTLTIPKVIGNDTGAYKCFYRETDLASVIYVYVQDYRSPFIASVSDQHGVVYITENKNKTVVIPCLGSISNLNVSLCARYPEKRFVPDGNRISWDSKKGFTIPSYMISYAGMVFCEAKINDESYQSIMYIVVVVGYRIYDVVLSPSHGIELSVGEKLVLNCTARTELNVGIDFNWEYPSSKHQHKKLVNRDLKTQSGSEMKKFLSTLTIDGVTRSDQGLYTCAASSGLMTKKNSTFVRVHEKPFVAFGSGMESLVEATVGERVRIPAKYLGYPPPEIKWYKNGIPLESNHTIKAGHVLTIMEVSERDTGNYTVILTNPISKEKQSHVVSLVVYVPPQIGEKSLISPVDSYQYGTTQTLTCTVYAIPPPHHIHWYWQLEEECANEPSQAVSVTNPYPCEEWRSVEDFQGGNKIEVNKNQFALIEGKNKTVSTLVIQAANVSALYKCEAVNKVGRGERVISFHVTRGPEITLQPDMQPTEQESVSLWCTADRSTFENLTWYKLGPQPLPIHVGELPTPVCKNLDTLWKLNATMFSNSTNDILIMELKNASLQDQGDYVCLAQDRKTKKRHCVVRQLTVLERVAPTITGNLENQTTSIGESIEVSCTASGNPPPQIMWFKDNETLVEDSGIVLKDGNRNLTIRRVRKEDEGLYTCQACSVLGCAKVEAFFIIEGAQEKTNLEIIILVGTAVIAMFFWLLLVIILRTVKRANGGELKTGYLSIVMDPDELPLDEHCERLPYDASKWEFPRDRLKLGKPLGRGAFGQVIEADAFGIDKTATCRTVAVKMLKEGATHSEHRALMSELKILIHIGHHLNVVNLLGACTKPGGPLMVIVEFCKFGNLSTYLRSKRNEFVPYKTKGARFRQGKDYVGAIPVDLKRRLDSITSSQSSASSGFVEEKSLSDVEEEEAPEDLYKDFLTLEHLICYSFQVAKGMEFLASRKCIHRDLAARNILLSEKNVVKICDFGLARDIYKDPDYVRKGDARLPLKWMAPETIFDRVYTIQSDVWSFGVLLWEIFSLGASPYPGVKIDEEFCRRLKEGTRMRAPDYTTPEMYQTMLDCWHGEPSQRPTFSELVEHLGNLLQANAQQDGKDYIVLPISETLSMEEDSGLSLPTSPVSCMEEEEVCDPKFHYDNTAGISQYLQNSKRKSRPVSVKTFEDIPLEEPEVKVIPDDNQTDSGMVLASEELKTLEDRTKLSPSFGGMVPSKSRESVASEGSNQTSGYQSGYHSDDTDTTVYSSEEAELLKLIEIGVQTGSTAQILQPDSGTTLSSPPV
VEGFR1, sequence (P17948 27-1338, species assumed): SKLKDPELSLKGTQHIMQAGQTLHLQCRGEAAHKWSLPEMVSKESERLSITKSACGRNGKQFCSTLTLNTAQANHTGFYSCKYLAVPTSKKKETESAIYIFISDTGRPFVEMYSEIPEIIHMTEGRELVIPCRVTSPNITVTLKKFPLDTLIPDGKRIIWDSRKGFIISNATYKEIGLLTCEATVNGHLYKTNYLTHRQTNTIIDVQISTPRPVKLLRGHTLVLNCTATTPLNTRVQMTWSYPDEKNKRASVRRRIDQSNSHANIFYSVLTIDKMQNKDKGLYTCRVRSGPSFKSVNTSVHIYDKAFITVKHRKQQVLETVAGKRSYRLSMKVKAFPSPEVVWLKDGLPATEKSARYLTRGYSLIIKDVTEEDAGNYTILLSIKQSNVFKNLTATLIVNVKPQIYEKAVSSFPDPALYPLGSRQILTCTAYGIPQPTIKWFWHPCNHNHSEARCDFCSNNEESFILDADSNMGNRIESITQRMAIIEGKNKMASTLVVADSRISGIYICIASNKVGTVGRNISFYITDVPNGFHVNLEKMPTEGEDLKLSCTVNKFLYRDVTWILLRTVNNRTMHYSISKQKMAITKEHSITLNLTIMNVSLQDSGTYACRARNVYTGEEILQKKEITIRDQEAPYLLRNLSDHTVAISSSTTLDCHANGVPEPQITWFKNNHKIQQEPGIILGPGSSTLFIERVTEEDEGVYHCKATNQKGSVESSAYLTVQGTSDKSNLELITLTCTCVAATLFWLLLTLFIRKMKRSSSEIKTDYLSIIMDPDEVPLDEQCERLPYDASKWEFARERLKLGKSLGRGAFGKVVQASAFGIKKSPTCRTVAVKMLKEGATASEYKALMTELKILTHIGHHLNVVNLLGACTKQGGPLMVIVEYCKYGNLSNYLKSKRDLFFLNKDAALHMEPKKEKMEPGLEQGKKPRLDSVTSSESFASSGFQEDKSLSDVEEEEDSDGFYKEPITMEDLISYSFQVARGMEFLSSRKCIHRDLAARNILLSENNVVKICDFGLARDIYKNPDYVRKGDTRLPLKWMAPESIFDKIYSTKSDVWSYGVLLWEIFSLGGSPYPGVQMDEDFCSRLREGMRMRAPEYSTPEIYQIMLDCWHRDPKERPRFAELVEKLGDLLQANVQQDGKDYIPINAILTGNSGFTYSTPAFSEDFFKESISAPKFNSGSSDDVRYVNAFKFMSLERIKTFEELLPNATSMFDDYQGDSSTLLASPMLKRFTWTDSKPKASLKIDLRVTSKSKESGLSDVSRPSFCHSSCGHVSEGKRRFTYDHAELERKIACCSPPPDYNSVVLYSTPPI
human VEGF receptor (VEGFR-2), sequence (P35968 786-1356): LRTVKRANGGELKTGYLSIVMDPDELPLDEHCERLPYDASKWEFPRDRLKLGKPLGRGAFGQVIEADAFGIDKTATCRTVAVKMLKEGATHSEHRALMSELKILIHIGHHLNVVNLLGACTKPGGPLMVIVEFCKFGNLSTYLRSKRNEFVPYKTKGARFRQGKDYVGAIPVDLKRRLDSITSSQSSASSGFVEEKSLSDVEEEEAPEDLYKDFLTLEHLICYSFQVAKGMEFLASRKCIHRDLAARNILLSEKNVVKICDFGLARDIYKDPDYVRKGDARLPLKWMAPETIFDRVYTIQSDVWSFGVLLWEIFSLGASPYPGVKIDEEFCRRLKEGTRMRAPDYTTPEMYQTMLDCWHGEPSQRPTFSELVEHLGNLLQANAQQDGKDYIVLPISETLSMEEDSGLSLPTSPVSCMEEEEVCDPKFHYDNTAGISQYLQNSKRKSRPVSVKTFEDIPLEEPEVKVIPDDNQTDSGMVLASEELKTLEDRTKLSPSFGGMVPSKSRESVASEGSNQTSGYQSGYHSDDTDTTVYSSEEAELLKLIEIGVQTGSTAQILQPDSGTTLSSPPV

Row | IC50 [1] [nM] | IC50 [2] [nM] | IC50 [3] [nM] | In Vivo Rabbit Eye VEGF Permeability [4] | IC50 [5] [nM] | SMILES
1 | 9 | 7 | 13 |  | 14 | CCOC(=O)N1CCN(CCNC(=O)c2cc3nccc(Oc4ccc(NC(=O)Nc5cc(C)ccc5F)c(F)c4)c3s2)CC1 [Example 23, ethyl 4-{2-[({7-[3-fluoro-4-({[(2-fluoro-5-methylphenyl)amino]carbonyl}amino)phenoxy]thieno[3,2-b]pyridin-2-yl}carbonyl)amino]ethyl}piperazine-1-carboxylate]
2 | 14 | 7 | 8 |  |  | Cc1ccc(F)c(NC(=O)Nc2ccc(Oc3ccnc4cc(C(=O)NCCCN5CCC(O)CC5)sc34)cc2F)c1 [Example 38, 7-[3-fluoro-4-({[(2-fluoro-5-methylphenyl)amino]carbonyl}amino)phenoxy]-N-[3-(4-hydroxypiperidin-1-yl)propyl]thieno[3,2-b]pyridine-2-carboxamide]
3 | 2 | 5 | 8 |  |  | COC(=O)[C@@H]1C[C@@H](O)CN1CCCNC(=O)c1cc2nccc(Oc3ccc(NC(=O)Nc4cc(C)ccc4F)c(F)c3)c2s1 [Example 39, methyl (2S,4R)-1-{3-[({7-[3-fluoro-4-({[(2-fluoro-5-methylphenyl)amino]carbonyl}amino)phenoxy]thieno[3,2-b]pyridin-2-yl}carbonyl)amino]propyl}-4-hydroxypyrrolidine-2-carboxylate]
4 | 328 | 19 |  | Efficacious |  | CCNC(=O)[C@H](CCC(=O)O)NC(=O)c1cc2nccc(Oc3ccc(NC(=O)Nc4cc(C)ccc4F)c(F)c3)c2s1 [Example 46, (4S)-5-(ethylamino)-4-[({7-[3-fluoro-4-({[(2-fluoro-5-methylphenyl)amino]carbonyl}amino)phenoxy]thieno[3,2-b]pyridin-2-yl}carbonyl)amino]-5-oxopentanoic acid]
5 | 80 | 16 | 18 |  |  | Cc1ccc(F)c(NC(=O)Nc2ccc(Oc3ccnc4cc(C(=O)NCCCN5CCC(C(=O)O)C5)sc34)cc2F)c1 (centres unmarked) [Example 50, 1-{3-[({7-[3-fluoro-4-({[(2-fluoro-5-methylphenyl)amino]carbonyl}amino)phenoxy]thieno[3,2-b]pyridin-2-yl}carbonyl)amino]propyl}pyrrolidine-3-carboxylic acid]
6 | 7 | 11 | 7 | Efficacious |  | Cc1ccc(F)c(NC(=O)Nc2ccc(Oc3ccnc4cc(C(=O)NCCCN5CCOCC5)sc34)cc2F)c1 [Example 55, 7-[3-fluoro-4-({[(2-fluoro-5-methylphenyl)amino]carbonyl}amino)phenoxy]-N-(3-morpholin-4-ylpropyl)thieno[3,2-b]pyridine-2-carboxamide]
7 | 1 | 14 | 15 |  |  | CCOC(=O)CCCNC(=O)c1cc2nccc(Oc3ccc(NC(=O)Nc4cc(C)ccc4F)c(F)c3)c2s1 [Example 57, ethyl 4-[({7-[3-fluoro-4-({[(2-fluoro-5-methylphenyl)amino]carbonyl}amino)phenoxy]thieno[3,2-b]pyridin-2-yl}carbonyl)amino]butanoate]
8 | 2 | 12 | 7 |  |  | Cc1ccc(F)c(NC(=O)Nc2ccc(Oc3ccnc4cc(C(=O)NCCCC(=O)O)sc34)cc2)c1 [Example 65, 4-[({7-[4-({[(2-fluoro-5-methylphenyl)amino]carbonyl}amino)phenoxy]thieno[3,2-b]pyridin-2-yl}carbonyl)amino]butanoic acid]

Continued, compound first:

Row | SMILES | IC50 [1] [nM] | IC50 [2] [nM] | IC50 [3] [nM] | In Vivo Rabbit Eye VEGF Permeability [4] | IC50 [5] [nM]
9 | Cc1ccc(F)c(NC(=O)Nc2ccc(Oc3ccnc4cc(C(=O)O)sc34)cc2)c1 [Compound F2, 7-[4-({[(2-Fluoro-5-methylphenyl)amino]carbonyl}amino)phenoxy]thieno[3,2-b]pyridine-2-carboxylic acid] | 29 | 20 | 16 | efficacious | 
10 | Cc1ccc(F)c(NC(=O)Nc2ccc(Oc3ccnc4cc(C(=O)NCCCc5nn[nH]n5)sc34)cc2)c1 [Example 12, 7-[4-({[(2-fluoro-5-methylphenyl)amino]carbonyl}amino)phenoxy]-N-[3-(2H-tetrazol-5-yl)propyl]thieno[3,2-b]pyridine-2-carboxamide] | 126 | 3 | 4 |  | 20
11 | Cc1ccc(F)c(NC(=O)Nc2ccc(Oc3ccnc4cc(C(=O)NCCc5nn[nH]n5)sc34)cc2)c1 [Example 13, 7-[4-({[(2-fluoro-5-methylphenyl)amino]carbonyl}amino)phenoxy]-N-[2-(2H-tetrazol-5-yl)ethyl]thieno[3,2-b]pyridine-2-carboxamide] | 97 | 6 | 10 |  | 19
12 | CCOC(=O)CN1CCN(CCCNC(=O)c2cc3nccc(Oc4ccc(NC(=O)Nc5cc(C)ccc5F)cc4)c3s2)CC1 [Example 14, ethyl (4-{3-[({7-[4-({[(2-fluoro-5-methylphenyl)amino]carbonyl}amino)phenoxy]thieno[3,2-b]pyridin-2-yl}carbonyl)amino]propyl}piperazin-1-yl)acetate] | 34 | 4 | 5 |  | 13
13 | Cc1ccc(F)c(NC(=O)Nc2ccc(Oc3ccnc4cc(C(=O)NCCCN5CCCC(CO)C5)sc34)cc2)c1 (centres unmarked) [Example 15, 7-[4-({[(2-fluoro-5-methylphenyl)amino]carbonyl}amino)phenoxy]-N-{3-[3-(hydroxymethyl)piperidin-1-yl]propyl}thieno[3,2-b]pyridine-2-carboxamide] | 39 | 3 | 3 |  | 10
14 | COC(=O)CNCCCNC(=O)c1cc2nccc(Oc3ccc(NC(=O)Nc4cc(C)ccc4F)cc3)c2s1 [Example 18, methyl ({3-[({7-[4-({[(2-fluoro-5-methylphenyl)amino]carbonyl}amino)phenoxy]thieno[3,2-b]pyridin-2-yl}carbonyl)amino]propyl}amino)acetate] | 0.8 | 3 | 6 | Efficacious | 11
15 | COC(=O)CN(CCCNC(=O)c1cc2nccc(Oc3ccc(NC(=O)Nc4cc(C)ccc4F)cc3)c2s1)CC(=O)OC [Example 19, dimethyl 2,2′-({3-[({7-[4-({[(2-fluoro-5-methylphenyl)amino]carbonyl}amino)phenoxy]thieno[3,2-b]pyridin-2-yl}carbonyl)amino]propyl}imino)diacetate] | 0.3 | 4 | 9 |  | 14
16 | CCN(CC)CCNC(=O)c1cc2nccc(Oc3ccc(NC(=O)Nc4cc(C)ccc4F)cc3)c2s1 [Example 69, N-[2-(diethylamino)ethyl]-7-[4-({[(2-fluoro-5-methylphenyl)amino]carbonyl}amino)phenoxy]thieno[3,2-b]pyridine-2-carboxamide] | 11 | 4 | 5 |  | 13
